These results are taken from PubChem BioAssay AID602415 (The Scripps Research Institute Molecular Screening Center, 2012).

The structures appear in SMILES notation. Activity calls are given as the source filed them.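 The calls were made as follows: active = substrate turnover at or below 60%; inactive = substrate turnover above 60%.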

For this test, the target named is Diacylglycerol lipase-beta (Mus musculus) (UniProt Q91WC9). Kind of test: mouse DAGLb substrate turnover inhibition – biochemical, LC-MS, overexpressed mouse DAGLb (AID 602415). Particulars: HEK293T membranes overexpressing mDAGLb, SAG turnover LC-MS; at 10 µM; active compounds read low.
Chain of Diacylglycerol lipase-beta (Mus musculus) (Q91WC9 whole entry, looked up): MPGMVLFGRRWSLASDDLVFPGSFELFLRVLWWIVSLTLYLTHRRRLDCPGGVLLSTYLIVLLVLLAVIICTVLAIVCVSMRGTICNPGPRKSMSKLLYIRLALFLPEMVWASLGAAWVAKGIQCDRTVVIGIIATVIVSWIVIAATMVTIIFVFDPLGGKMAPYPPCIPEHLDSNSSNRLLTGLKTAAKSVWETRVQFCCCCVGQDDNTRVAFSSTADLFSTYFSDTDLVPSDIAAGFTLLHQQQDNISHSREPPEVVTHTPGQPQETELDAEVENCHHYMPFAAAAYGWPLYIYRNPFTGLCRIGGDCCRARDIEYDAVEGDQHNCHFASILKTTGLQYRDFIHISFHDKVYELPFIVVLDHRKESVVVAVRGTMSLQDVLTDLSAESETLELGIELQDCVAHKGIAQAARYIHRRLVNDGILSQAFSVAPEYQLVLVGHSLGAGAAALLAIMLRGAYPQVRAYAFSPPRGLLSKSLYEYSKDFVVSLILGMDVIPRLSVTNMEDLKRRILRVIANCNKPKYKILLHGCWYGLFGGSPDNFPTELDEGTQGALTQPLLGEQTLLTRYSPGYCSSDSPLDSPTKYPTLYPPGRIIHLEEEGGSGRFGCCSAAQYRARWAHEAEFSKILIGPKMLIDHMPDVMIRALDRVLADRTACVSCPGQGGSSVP
For `COc1ccc(N/C=C2\C(=O)CCc3c2oc2cc(Cl)c(O)c(Cl)c32)cc1`, the substrate turnover is 16%.

On to `CCOc1ccc2c(c1)-c1c(ssc1=S)C(C)(C)N2`, for which the substrate turnover is 70% (inactive).

In the case of `O=[N+]([O-])c1ccccc1NN=Cc1c[nH]c2ccccc12`, the substrate turnover was 80% (inactive).

For `CCOc1cc(/C=C2\N=C(SCC)SC2=O)cc([N+](=O)[O-])c1OC(C)=O`, the substrate turnover was 78% (inactive).

As for `Cc1cc(N=Nc2ccccc2C(=O)O)c(C)c(C)c1O`, the substrate turnover is 89% (inactive).

Turning to `COc1cc(C=NNc2ccccc2[N+](=O)[O-])cc(OC)c1O`, the substrate turnover is 60% (inactive).

Consider `COc1cccc(C(=O)NNc2c3ccccc3nc3ccccc23)c1`, for which the substrate turnover was 71% (inactive).

As to `O=[N+]([O-])c1ccc(N2CCN(c3ccc(F)cc3)CC2)cc1`, the substrate turnover is 74% (inactive).

Turning to `COc1ccc(C2/C=C\CN(C(=O)c3ccc(C)cc3)[C@H](Cc3ccccc3)C(=O)N2Cc2ccc(F)cc2)cc1` (stereo partly specified), the substrate turnover is 59%.

In the case of `CCCN1C(=O)/C(=C2/C=Cc3ccccc3N2CC)SC1=S`, the substrate turnover is 68% (inactive).

As for `CCC(=NNc1ccc([N+](=O)[O-])cc1[N+](=O)[O-])c1ccc(O)cc1`, the substrate turnover was 67% (inactive).

Take `O=[N+]([O-])c1ccc(N2CCN(c3ccccc3)CC2)cc1`: the substrate turnover was 91% (inactive).

With `CC1=NN(c2ccccc2)C(=O)/C1=C\C=C1/N(C)c2ccccc2C1(C)C`, the substrate turnover is 74% (inactive).

For the molecule `Cc1ccc(-n2[nH]c(C)c(C=NNc3ccc([N+](=O)[O-])cc3[N+](=O)[O-])c2=O)cc1C`, the substrate turnover was 57%.

For the molecule `COc1cc(/C=C2\SC(=O)N(c3ccccc3Cl)C2=O)cc([N+](=O)[O-])c1O`, the substrate turnover was 61% (inactive).

For the molecule `NS(=O)(=O)c1ccc(N=Nc2c(O)ccc3ccccc23)cc1`, the substrate turnover was 57%.

Turning to `O=C(NC(C(=O)NN=Cc1cccc2ccccc12)c1n[nH]c(=O)c2ccccc12)c1ccccc1` (stereo unspecified), the substrate turnover was 49%.

Take `Nc1nc(-c2ccccc2)c(N=Nc2ccccc2Cl)s1`: the substrate turnover was 39%.

`Cc1ccc(C)c(NC(=O)/C(C#N)=C/c2cn(CC(=O)NCc3ccco3)c3ccccc23)c1`: the substrate turnover is 93% (inactive).

Consider `O=C(NNc1c2ccccc2nc2ccccc12)c1cc2ccccc2cc1O`, for which the substrate turnover is 65% (inactive).

For `CC(=NNc1ccc(S(N)(=O)=O)cc1[N+](=O)[O-])c1ccc2c(c1)OCO2`, the substrate turnover was 64% (inactive).

For the molecule `COc1ccc(S(=O)(=O)N2CCOCC2)cc1N=Nc1sc(N)nc1-c1ccccc1`, the substrate turnover was 97% (inactive).

For the molecule `CCOc1ccccc1N1CCN(C2=C(NS(=O)(=O)c3cccs3)C(=O)c3ccccc3C2=O)CC1`, the substrate turnover is 79% (inactive).

Turning to `Nc1nc(-c2ccccc2)c(N=Nc2cccc3ccccc23)s1`, the substrate turnover was 95% (inactive).

In the case of `N#CC(C#N)=NNc1ccc([N+](=O)[O-])cc1`, the substrate turnover was 65% (inactive).

For `C/C(C/C(C)=C1/SC(=S)NC1=O)=C1\SC(=S)NC1=O`, the substrate turnover was 22%.
